Measurements published in US20060019270A1, “Global DNA methylation assessment using bisulfite PCR” (Board of Regents The University of Texas System, priority 2004, published 2006).

Assays:
[1] = tested on: Alu element methylation; experiment: Alu element assay (COBRA) on peripheral blood of leukemia patients treated with decitabine; assay type: in vivo, human
Method: FIG. 6 illustrates treatment schema of patient samples. Patients were treated as part of a Phase II study of Decitabine which was given initially a dose of 90 mg/m2 twice daily for 5 consecutive days. This dose was later decreased to 50 mg/m2 twice daily due to toxicity. In this “High” Dose Study a total dose of 500-900 mg/m2 of decitabine was given over a 5 day period. Peripheral blood specimens were collected on day 0 or 1 prior to treatment, days 2-4 during treatment, and on days 5 or 6 after the completion of treatment. In the second study, a Phase I strategy of “Low” Dose Decitabine was used. This study was designed to take advantage of Decitabine's demethylating properties. Escalating doses of Decitabine of 5, 10, 15 and 20 mg/m2 were given as ten daily doses over a two week period. The total dose delivered was only 50 to 200 mg/m2 over a 14 day period. Peripheral blood specimens were collected on day 0 or 1 prior to treatment, and during days 2-14 of treatment;
Normal colon mucosa and colon cancers were collected from consenting patients. Thirty-one matched pairs of normal colon mucosa and colon tumors were used in this study. An additional 9 normal colon samples were collected from patients undergoing colectomy for non-neoplastic reasons. DNA was isolated using standard phenol-chloroform extraction methods. DNA was bisulfite treated as described above. A previously described COBRA assay that examined Alu repetitive elements was developed as a global genome methylation assessment assay (Xiong and Laird, 1997). In brief, a 25 ul PCR reaction was carried out in 60 mM Tris-HCl pH 9.5, 15 mM Ammonium Sulfate, 5.5 mM MgCl2, 10% DMSO, 1 mM dNTP mix, 1 unit of Taq polymerase, 50 pmol of the forward primer (5′-[…]-3′) (SEQ ID NO: 1), 50 pmol of the reverse primer (5′-[…]-3′) (SEQ ID NO:2), and approximately 50 ng of bisulfite treated genomic DNA. PCR cycling conditions were 96° C. for 90 seconds, 43° C. for 60 seconds, and 72° C. for 120 seconds for 27 cycles. After the PCR reaction was complete 15 μl of MboI buffer (New England Biolabs Buffer #3) were added along with 5 units of MboI Restriction Enzyme and water to a final volume of 150 ul. The restriction digestion was incubated at 37° C. overnight to assure complete digestion. The digested PCR product was then precipitated by adding 1 μl glycogen and 2 volumes of ethanol and kept at −20° C. for at least 4 hours. Samples were then centrifuged for 30 minutes, the ethanol was poured off and the pellet was air dried prior to resuspending in a small volume (5-10 μl) of water. The digested PCR products were then run on an Agilent Biosystems DNA analyzer to quantitate the cut ([…]) and uncut ([…]) DNA. Each sample was run at least twice and the data reported is an average of all runs.
The methylation sites in Alu elements are frequently mutated from C to T by spontaneous deamination, which results in a gross underestimating of the amount of 5-methylcytosine. Therefore, control genomic DNA was double treated with SssI methylase and bisulfite treated to act as a 100% methylated control. Alu methylation is reported as a percentage of this fully methylated control standard.
Patient samples were collected from patients treated as part of two clinical studies using 5-aza-2′deoxycytidine (decitabine) as a single agent. The first study treated patients with 50-90 mg/m2 of decitabine twice daily for 5 consecutive days (See FIG. 8). The second study was a phase I study which attempted to capitalize on the demethylating properties of decitabine by using a lower dose of decitabine, 5-20 mg/m^2 once daily, for a longer period of time, 10 days over a two week period (See FIG. 8). Peripheral blood samples were collected prior to, during and after treatment. Donation of blood samples for laboratory studies was voluntary and 143 samples were collected from 41 patients participating in both studies (See Table 4). […]

[2] = tested on: LINE-1 methylation in Hct116 cells; experiment: COBRA (HinfI) of LINE-1 PCR, Hct116 cells treated with DAC; assay type: cell-based, human; details: 5 μM DAC for three days, 77% prior to treatment
Method: Hct116, RKO and SW48, colon cancer cell lines (American Type Culture Collection, Manassas, Va.), were cultured using standard methods. Cells were treated with 5 μM 5-aza-2′deoxycytidine (DAC) for three days prior to being harvested. DNA from cell lines and peripheral blood leukocytes was extracted using phenol-chloroform extraction methods well known to one with skill on the art.
Bisulfite modification of genomic DNA is known in the art (see Clark et. al, 1994). In brief, 1.5 μg prepared 10 mM hydroquinone (Sigma) and 520 μl of 3M Sodium Bisulfite (Sigma) at pH=5.0 were added and mixed. The samples were overlayed with mineral oil to prevent evaporation and incubated at 50° C. for 16 hours. The bisulfite treated DNA was isolated using Wizard DNA Clean-Up System (Promega). The DNA was eluted by 50 μl of warm water and 5.5 μl of 3M NaOH were added for 5 minutes. The DNA was ethanol precipitated with glycogen as a carrier and resuspended in 20 μl water. Bisulfite treated DNA was stored at −20° C. until ready for use. […]
In order to test whether Alu element […] LINE-1 methylation could approximate global methylation, COBRA, restriction digestion of the repetitive element PCR product, was used to quantitate DNA methylation in cell lines treated with 5-aza-2′deoxycytidine (DAC) (FIG. 3). […] Thus both assays reliably detected inhibition of methylation induced by DAC. […]

## Nc1ncn([C@H]2C[C@H](O)[C@@H](CO)O2)c(=O)n1 [decitabine, 5-aza-2′-deoxycytidine]
[1]; 41 patients with leukemia, different doses, 4 to 7 days after treatment
  average Alu demethylation: 7.7%
[1]; 41 patients with leukemia, 4 to 7 days after treatment
  maximum decrease in Alu methylation seen in a single patient: 31.5%
[1]; DNA methylation at days 5 to 6, both studies (FIG. 9B)
  optimal demethylating dose: 15 to 20 mg/m2/day
[1]; High Dose Study (p=0.23)
  correlation of Alu demethylation with clinical response: demethylation did not correlate to response
[1]; High Dose study, day 5 to 8
  mean decrease of Alu element methylation: 10%
[1]; Low Dose Study (p=0.04 days 5-8, p=0.02 days 9-14)
  correlation of Alu demethylation with clinical response: demethylation did correlate to response
[1]; Low dose study, day 5 to 8
  decrease in Alu element methylation: 5%
[1]; both studies
  patients showing a paradoxical increase in DNA methylation with decitabine treatment: 12%
[1]; both studies, overall
  mean decrease in Alu methylation: 7.7%
  range of decrease in Alu methylation: −10.3 to 31.5%
[1]; both studies, 90.5% methylated prior to treatment
  patients showing a decrease in Alu methylation with decitabine treatment: 88%
[1]; either dosing regimen
  earliest day demethylation could be detected: 2 days
[1]; low dose decitabine
  time at which demethylation plateaus: 5 to 8 days
[1]; patients with leukemia
  time for methylation to return to baseline after finishing treatment (in as little as): 15 days
[1]; six dose levels 5-180 mg/m2/day, day 5-6
  dose dependence of demethylation at higher doses: there did not appear to be a significant increase in demethylation beyond 20 mg/m2/day
[2]
  LINE-1 methylation after treatment with DAC: 17%
